From patent US20200171132A1, “METHODS OF INHIBITING FUNGAL CERAMIDE SYNTHASE FOR TREATMENT OF CRYPTOCOCCUS NEOFORMANS INFECTION” (The Research Foundation for the State University of New York, priority 2017, published 2020)

How the values were obtained:
[1] = molecular target: T1, human Cer1 (Homo sapiens, UniProt P27544); settings: cited from earlier work
T1 sequence (P27544 1-350): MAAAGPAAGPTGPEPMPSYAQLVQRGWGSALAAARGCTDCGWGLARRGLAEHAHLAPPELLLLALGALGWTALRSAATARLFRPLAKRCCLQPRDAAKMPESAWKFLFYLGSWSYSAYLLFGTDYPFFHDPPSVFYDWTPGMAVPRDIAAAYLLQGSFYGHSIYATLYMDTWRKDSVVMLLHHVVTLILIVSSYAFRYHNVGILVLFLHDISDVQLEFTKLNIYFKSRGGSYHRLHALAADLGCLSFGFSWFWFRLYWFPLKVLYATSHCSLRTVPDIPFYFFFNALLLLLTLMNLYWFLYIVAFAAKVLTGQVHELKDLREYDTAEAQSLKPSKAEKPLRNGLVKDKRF

[2] = tested on: Cer1; settings: cited from earlier work
[3] = tested on: GAL7::IPC1; experiment: In vitro growth at 37° C., 5% CO2, pH 4.0; format: cell-based, Cryptococcus neoformans; settings: supplementation
[4] = tested on: Pma1; experiment: Glucose dependent medium acidification (plasma membrane H+-ATPase activity); format: cell-based, Cryptococcus neoformans
Method: Glucose-dependent medium acidification was monitored by a modification of a procedure described previously (Perlin, Brown et al. 1988, Soteropoulos, Vaz et al. 2000). Cultures of Cn strain WT, Δcer1, Δcer1+CER1, Δgcs1 were grown to mid-log Phase in YPD. The next day, these cells were transferred to DMEM at pH 4.0 and allowed to grow under shaking conditions for 24 hours. These cells were then harvested and washed using 100 mM KCl, pH 5.0. These pellets were then resuspended in 10 ml KCl, pH 5.0 and incubated under shaking condition at 30° C. These samples were then stored at 4° C. overnight prior to use. For the assay, cells were concentrated to a final A590 of approximately 2.0. 20 μl cells along with 155 μl of bromophenolblue (50 μg/ml) in 100 mM KCl, pH 5.0. 20 μl 20% (w/v) glucose was added to initiate the reaction. Medium acidification was monitored at 590 nm over a period of 5 hours (data point every 3 mins) in a microplate reader (SpectraMax M5).

Structure (SMILES)	targets human Cer1 [1]	known Cer1 inhibitor [2]	growth defect of GAL7::IPC1 in acidic conditions [3]	Pma1 activity ([4]; AbA treated Δgcs1 cells, supplementation)	Pma1 efficiency ([4]; Δcer1 cells upon supplementation)
CCCCCC[C@@H](C)C1=C(O)C(=O)[C@@H]2[C@H](O)[C@H](C)C[C@H](O)[C@H]2[C@]1(C)C(=O)/C=C\O [Australifungin]	targets human Cer1	known Cer1 inhibitor	–	–	–
CCCCCCCCCCCCC/C=C/[C@@H](O)[C@H](CO)NC(=O)CCCCCCCCCCCCCCCCC [C18 ceramide]	–	–	compensated	increases	increase
